Data from US12571793B2, “Method for evaluating biofilm formation, and invertebrate for use in evaluating biofilm formation” (MEIJI PHARMACEUTICAL UNIVERSITY, priority 2020, dated 2026).

System: C. albicans strain SC5314
Assay: Test Example 5: suppression effect of antifungal drugs on biofilm formation on polyurethane fibers in silkworms, drug given 12 hours after inoculation
Format: in vivo, Candida albicans (in silkworm)
Conditions: antifungal drug administered 12 hours after inoculation of C. albicans; fibers extracted 24 hours after inoculation; compared with physiological saline
Procedure: Biofilms formed on the surface of the polyurethane fibers after the culture were stained with crystal violet, and the biofilms were quantified. The biofilms were stained as follows. Each of the polyurethane fibers were moved to a 1.5-ml tube and washed with 1 ml of distilled water twice. Then, 500 μl of an aqueous 0.1% crystal violet solution was added, and the polyurethane fiber was placed at room temperature for 20 to 60 minutes. The stain solution was discarded, and the polyurethane fiber were washed with 1 ml of distilled water 3 times. The polyurethane fibers were washed with 1 ml of ethanol twice and then air-dried. The polyurethane fibers were observed under a microscope (×10, CH30, Olympus Corporation), and photographs were taken. Then, 500 μl of 33% acetic acid solution was added, and the polyurethane fibers were left to stand at room temperature for 2 hours or more. The absorbance (OD590) of the sample to which 500 μl of distilled water was added to adjust the total volume to 1 ml was measured.
Next, it was examined whether biofilms by C. albicans were formed on the surface of the polyurethane fibers in the bodies of silkworms. Silkworms in which the polyurethane fibers were inserted were inoculated with 50 μl of physiological saline solution (saline) or 50 μl of a suspension of C. albicans strain SC5314 (7×10^7 cells/ml) and bred at 27° C. for 24 hours. […]

C[C@@H]1[C@H](O)[C@@H](C)/C=C/C=C/C=C/C=C/C=C/C=C/C=C/[C@H](O[C@@H]2O[C@H](C)[C@@H](O)[C@H](N)[C@@H]2O)C[C@@H]2O[C@](O)(C[C@@H](O)C[C@@H](O)[C@H](O)CC[C@@H](O)C[C@@H](O)CC(=O)O[C@H]1C)C[C@H](O)[C@H]2C(=O)O [amphotericin B]
biofilm formation on the polyurethane fiber in the bodies of the silkworms (crystal violet, absorbance 590 nm): significantly suppressed
